What was measured:
Assay in all cases: relative viability (nuclei count vs DMSO), 5 days (fraction); higher = more cells survive
Bexarotene + Vorinostat = compound: C=C(c1ccc(C(=O)O)cc1)c1cc2c(cc1C)C(C)(C)CCC2(C)C [Bexarotene] + O=C(CCCCCCC(=O)Nc1ccccc1)NO [Vorinostat] (partner 1 µM)
How it was run: (§1)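 Each reported value is a median over duplicate plates. It expresses relative viability: treated-well nuclei count divided by vehicle-well nuclei count. Lung cancer cell lines in 1536-well plates were dosed by pin tool a day after seeding, alone with one drug or with a fixed anchor-drug dose plus five library-drug doses (not always all listed) in √10 steps, and nuclei were counted after 5 days.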

Bexarotene + Dasatinib = compound: C=C(c1ccc(C(=O)O)cc1)c1cc2c(cc1C)C(C)(C)CCC2(C)C [Bexarotene] + Cc1nc(Nc2ncc(C(=O)Nc3c(C)cccc3Cl)s2)cc(N2CCN(CCO)CC2)n1 [Dasatinib] (partner 0.075 µM)
How it was run: as §1

Bexarotene + Pictilisib = compound: C=C(c1ccc(C(=O)O)cc1)c1cc2c(cc1C)C(C)(C)CCC2(C)C [Bexarotene] + CS(=O)(=O)N1CCN(Cc2cc3nc(-c4cccc5[nH]ncc45)nc(N4CCOCC4)c3s2)CC1 [Pictilisib] (partner 1 µM)
How it was run: as §1

Bexarotene + Crizotinib = compound: C=C(c1ccc(C(=O)O)cc1)c1cc2c(cc1C)C(C)(C)CCC2(C)C [Bexarotene] + C[C@@H](Oc1cc(-c2cnn(C3CCNCC3)c2)cnc1N)c1c(Cl)ccc(F)c1Cl [Crizotinib] (partner 1 µM)
How it was run: as §1

Row | Cell Line | relative viability (Bexarotene + Vorinostat; first compound 0.08 µM) | relative viability (Bexarotene + Vorinostat; first compound 0.253 µM) | relative viability (Bexarotene + Vorinostat; first compound 0.8 µM) | relative viability (Bexarotene + Vorinostat; first compound 2.53 µM) | relative viability (Bexarotene + Vorinostat; first compound 8 µM) | relative viability (Bexarotene + Dasatinib; first compound 0.08 µM) | relative viability (Bexarotene + Dasatinib; first compound 0.253 µM) | relative viability (Bexarotene + Dasatinib; first compound 0.8 µM) | relative viability (Bexarotene + Dasatinib; first compound 2.53 µM) | relative viability (Bexarotene + Dasatinib; first compound 8 µM) | relative viability (Bexarotene + Pictilisib; first compound 0.08 µM) | relative viability (Bexarotene + Pictilisib; first compound 0.253 µM) | relative viability (Bexarotene + Pictilisib; first compound 0.8 µM) | relative viability (Bexarotene + Pictilisib; first compound 2.53 µM) | relative viability (Bexarotene + Pictilisib; first compound 8 µM) | relative viability (Bexarotene + Crizotinib; first compound 0.08 µM) | relative viability (Bexarotene + Crizotinib; first compound 0.253 µM) | relative viability (Bexarotene + Crizotinib; first compound 0.8 µM) | relative viability (Bexarotene + Crizotinib; first compound 2.53 µM) | relative viability (Bexarotene + Crizotinib; first compound 8 µM)
1 | NCI-H23 | 0.715 | 0.782 | 0.599 | 0.453 | 0.541 | 0.944 | 0.594 | 0.635 | 0.884 | 0.691 | 0.623 | 0.489 | 0.44 | 0.516 | 0.52 | 0.534 | 0.561 | 0.514 | 0.647 | 0.529
2 | NCI-H322M | 0.978 | 0.983 | 0.945 | 0.757 | 0.934 | 0.282 | 0.266 | 0.264 | 0.261 | 0.3 | 0.573 | 0.408 | 0.544 | 0.514 | 0.502 | 0.829 | 1.06 | 0.87 | 0.93 | 1.04
3 | NCI-H358 | 0.7 | 0.798 | 0.667 | 0.934 | 0.703 | 0.224 | 0.33 | 0.251 | 0.234 | 0.259 | 0.377 | 0.364 | 0.376 | 0.435 | 0.351 | 0.541 | 0.603 | 0.497 | 0.66 | 0.49
4 | NCI-H441 | 0.679 | 0.805 | 0.628 | 0.716 | 0.547 | 0.857 | 0.701 | 1 | 0.717 | 0.579 | 0.628 | 0.511 | 0.524 | 0.482 | 0.616 | 0.742 | 0.708 | 0.94 | 0.635 | 0.738
5 | NCI-H460 | 0.812 | 0.752 | 0.644 | 0.716 | 0.67 | 0.615 | 0.531 | 0.565 | 0.512 | 0.505 | 0.471 | 0.343 | 0.396 | 0.302 | 0.371 | 0.91 | 1.1 | 0.908 | 0.845 | 0.766
6 | NCI-H520 | 0.781 | 0.695 | 0.778 | 0.775 | 0.716 | 0.223 | 0.211 | 0.204 | 0.215 | 0.187 | 0.324 | 0.244 | 0.293 | 0.286 | 0.235 | 0.989 | 0.735 | 0.649 | 0.775 | 0.659
7 | NCI-H596 | 0.655 | 0.69 | 0.414 | 0.533 | 0.602 | 0.671 | 0.654 | 0.773 | 0.907 | 0.704 | 0.397 | 0.441 | 0.299 | 0.363 | 0.426 | 1.05 | 1.01 | 0.871 | 0.973 | 1.05
8 | NCI-H647 | 0.544 | 0.917 | 0.826 | 0.978 | 0.538 | 0.173 | 0.153 | 0.123 | 0.0933 | 0.114 | 0.378 | 0.356 | 0.429 |  | 0.358 | 1.38 | 1.18 | 1.19 | 1.12 | 0.912
